Measurements from the supplement of paper PMC4862054.

Assays:
Conditions in all cases: incubation time: 72 h
[1] = system: MDA-MB-436; experiment: normalised viability (% of control), CellTiter-Blue; higher = more viable cells (about 100 = DMSO control)
How it was run: (§1)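 Vehicle (100) and a positive kill control (0) anchored the normalisation of each plate, and Z'-factor was used for quality control. Breast cancer cell lines in 20 µl suspension were incubated 72 h over compound in 5 µl medium in 384-well plates, followed by CellTiter-Blue at 560/590 nm. The value is normalised viability at a single listed concentration of the series.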

[2] = system: BT-549; experiment: as above
How it was run: as §1

[3] = system: DU-4475; experiment: as above
How it was run: as §1

[4] = system: MDA-MB-453; experiment: as above
How it was run: as §1

[5] = system: MDA-MB-436; experiment: normalised viability (% of control), CellTiter-Blue; higher = more viable cells (about 100 = DMSO control); remark: listed apart in the source
Procedure: (§2)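 DSRT, CellTiter-Blue viability, 72 h incubation. Signal is normalised to DMSO and benzethonium chloride controls. Value is the normalised response at dose 3.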

[6] = system: Hs578T; experiment: as above
Procedure: as §2

[7] = system: HCC1143; experiment: as above
Procedure: as §2

[8] = system: BT-549; experiment: as above; remark: listed apart in the source
Procedure: as §2

[9] = system: CAL-85-1; experiment: as above
Procedure: as §2

[10] = system: MFM-223; experiment: as above
Procedure: as §2

[11] = system: CAL-120; experiment: as above
Procedure: as §2

[12] = system: MDA-MB-231; experiment: as above
Procedure: as §2

[13] = system: DU-4475; experiment: as above; remark: listed apart in the source
Procedure: as §2

[14] = system: MDA-MB-468; experiment: as above
Procedure: as §2

[15] = system: HCC1599; experiment: as above
Procedure: as §2

[16] = system: HDQ-P1; experiment: as above
Procedure: as §2

[17] = system: CAL-148; experiment: as above
Procedure: as §2

[18] = system: BT-474; experiment: as above
Procedure: as §2

[19] = system: SK-BR-3; experiment: as above
Procedure: as §2

[20] = system: MDA-MB-453; experiment: as above; remark: listed apart in the source
Procedure: as §2

[21] = system: CAL-51; experiment: as above
Procedure: as §2

[22] = system: HCC1937; experiment: as above
Procedure: as §2

[23] = system: Hs578T; experiment: drug sensitivity score (DSS), CellTox Green (DSS (AUC-based score)); higher = stronger drug effect (viability inhibition or cytotoxicity); extreme values may be limits of the assay
How it was run: (§3)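 Normalisation on every plate relied on 0.1 % DMSO and a positive kill control. The plates, 384-well format, held compound at 5 concentrations 10-fold apart across a compound-specific 10,000-fold range, and breast cancer cell lines in 20 µl suspension were incubated on them for 72 h before CellTox Green and then CellTiter-Glo readings. The drug sensitivity score derives from the area under the fitted dose-response curve.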

[24] = system: HCC1143; experiment: as above
How it was run: as §3

[25] = system: CAL-85-1; experiment: as above
How it was run: as §3

[26] = system: MDA-MB-231; experiment: as above
How it was run: as §3

[27] = system: CAL-148; experiment: as above
How it was run: as §3

[28] = system: BT-474; experiment: as above
How it was run: as §3

[29] = system: HCC1937; experiment: as above
How it was run: as §3

COc1cc2nccc(Oc3ccc(NC(=O)C4(C(=O)Nc5ccc(F)cc5)CC4)cc3)c2cc1OC [Cabozantinib]
Conditions | normalised viability [%]
[1], 1 nM | 110
[1], 100 nM | 102
[1], 1000 nM | 97.3
[2], 1 nM | 96.3
[2], 100 nM | 108
[2], 1000 nM | 101
[3], 0.3 nM | 90.4
[3], 3 nM | 78
[3], 10 nM | 88.4
[4], 0.3 nM | 111
[4], 3 nM | 96.9
[4], 10 nM | 108
[5], 10 nM | 108
[6], 10 nM | 91.1
[7], 10 nM | 81.3
[8], 10 nM | 104
[9], 1 nM | 91.8
[10], 10 nM | 93.5
[11], 10 nM | 80.7
[12], 10 nM | 100
[13], 1 nM | 89.4
[14], 10 nM | 123
[15], 10 nM | 82.3
[16], 1 nM | 99.5
[17], 1 nM | 98.6
[18], 10 nM | 122
[19], 10 nM | 76.2
[20], 1 nM | 98.5
[21], 1 nM | 96.9
[22], 10 nM | 95.4

Conditions | drug sensitivity score
[23] | 0
[24] | 0
[25] | 0
[26] | 0
[27] | 0
[28] | 0
[29] | 0

COc1cc([C@@H]2c3cc4c(cc3[C@@H](O[C@@H]3O[C@@H]5CO[C@@H](C)O[C@H]5[C@H](O)[C@H]3O)[C@H]3COC(=O)[C@H]23)OCO4)cc(OC)c1O [Etoposide]
Conditions | normalised viability [%]
[1], 10 nM | 99.8
[1], 1000 nM | 84.1
[1], 10000 nM | 55.2
[2], 10 nM | 84.9
[2], 1000 nM | 56
[2], 10000 nM | 46.7
[3], 3 nM | 108
[3], 30 nM | 72.3
[3], 100 nM | 61.3
[4], 3 nM | 109
[4], 30 nM | 107
[4], 100 nM | 99.8
[5], 100 nM | 97.6
[6], 100 nM | 84.3
[7], 100 nM | 84
[8], 100 nM | 77.5
[9], 10 nM | 101
[10], 100 nM | 98.7
[11], 100 nM | 90.8
[12], 100 nM | 96.6
[13], 10 nM | 115
[14], 100 nM | 94.2
[15], 100 nM | 115
[16], 10 nM | 94.2
[17], 10 nM | 93.8
[18], 100 nM | 108
[19], 100 nM | 58.5
[20], 10 nM | 108
[21], 10 nM | 91.1
[22], 100 nM | 91.3

Conditions | drug sensitivity score
[23] | 20.3
[24] | 0
[25] | 1.64
[26] | 0
[27] | 5.65
[28] | 0
[29] | 0
